Results taken from PubChem BioAssay AID1224921 (Broad Institute, 2016).
Calls of active or inactive are those of the source. No rule for the calls is given here.

Each molecule was assayed on Clostridioides difficile clinical isolate growth, OD600, 24 h (assay: inhibitors of Clostridioides difficile proliferation – 4-point retest, confirmation (AID 1224921)).

`COc1ccc(CN(C)C[C@H]2OCCCC[C@@H](C)Oc3ccc(NC(=O)Nc4cccc5ccccc45)cc3C(=O)N([C@@H](C)CO)C[C@@H]2C)cc1` and `C[C@H](CO)N1C[C@H](C)[C@H](CN(C)CC2CCCCC2)OCCCC[C@H](C)Oc2ccc(NC(=O)Nc3cccc4ccccc34)cc2C1=O` are within 1.5-fold of each other in AC50: 27.4 µM for the first, 29 µM for the second.

Going from `O=C(NCC[C@H]1CC[C@H](NC(=O)c2cccnc2)[C@H](CO)O1)Nc1ccc(C(F)(F)F)cc1` to `CC(=O)N[C@@H]1CC[C@@H](CCNC(=O)Nc2ccc(C(F)(F)F)cc2)O[C@@H]1CO`, the AC50 rises from 1.6 µM to 8.39 µM (5.2-fold).

`CC(C)CC#Cc1ccc2c(c1)O[C@H](CN(C)Cc1ccc(C(=O)O)cc1)[C@@H](C)CN([C@H](C)CO)S2(=O)=O` and `C[C@H]1CN([C@@H](C)CO)S(=O)(=O)c2ccc(C#Cc3cccc(F)c3)cc2O[C@H]1CN(C)C` are within 1.5-fold of each other in AC50: 17.9 µM for the first, 24.8 µM for the second.

Going from `CCC(=O)N[C@H]1CC[C@H](CCNC(=O)Nc2ccc(C(F)(F)F)cc2)O[C@@H]1CO` to `CCC(=O)N[C@H]1CC[C@H](CCNC(=O)Nc2ccc(C(F)(F)F)cc2)O[C@H]1CO`, the AC50 rises from 3.05 µM to 16.5 µM (5.4-fold).

`C[C@@H]1CCCCO[C@H](CN(C)CC2CCCCC2)[C@H](C)CN([C@H](C)CO)C(=O)c2cc(NC(=O)Nc3ccc(C(F)(F)F)cc3)ccc2O1` and `C[C@@H]1CCCCO[C@@H](CN(C)CC2CCCCC2)[C@H](C)CN([C@H](C)CO)C(=O)c2cc(NC(=O)Nc3ccc(C(F)(F)F)cc3)ccc2O1` are within 1.5-fold of each other in AC50: 13.6 µM for the first, 16.2 µM for the second.

`O=C(C[C@H]1CC[C@H]2[C@@H](COC[C@H](O)CN2S(=O)(=O)c2ccc(F)cc2)O1)NCC1CCCCC1` and `O=C(C[C@H]1CC[C@@H]2[C@H](COC[C@@H](O)CN2S(=O)(=O)c2ccc(F)cc2)O1)NCC1CCCCC1` are within 1.5-fold of each other in AC50: 15.4 µM for the first, 15.8 µM for the second.

`O=C(C[C@@H]1CC[C@H]2[C@@H](COC[C@@H](O)CN2S(=O)(=O)c2ccc(Cl)cc2)O1)NCC1CCCCC1` and `O=C(C[C@@H]1CC[C@H]2[C@@H](COC[C@H](O)CN2S(=O)(=O)c2ccccc2)O1)NCC1CCCCC1` are within 1.5-fold of each other in AC50: 15.8 µM for the first, 15.6 µM for the second.

Compared with `C[C@@H]1CCCCO[C@@H](CN(C)C)[C@H](C)CN([C@H](C)CO)C(=O)c2cc(NC(=O)Nc3ccc(C(F)(F)F)cc3)ccc2O1`, `C[C@@H]1CCCCO[C@@H](CN(C)CC2CC2)[C@@H](C)CN([C@H](C)CO)C(=O)c2cc(NC(=O)Nc3ccc(C(F)(F)F)cc3)ccc2O1` is 2-fold higher in AC50: 17.5 µM for the first, 35.5 µM for the second.

Compared with `C[C@@H]1CN([C@@H](C)CO)C(=O)c2cccc(NC(=O)Nc3ccc(F)cc3)c2O[C@@H]1CN(C)Cc1ccc(-c2ccccc2)cc1`, `C[C@@H]1CN([C@@H](C)CO)C(=O)c2cccc(NC(=O)Nc3ccc4c(c3)OCO4)c2O[C@@H]1CN(C)Cc1ccc(-c2ccccc2)cc1` is higher in AC50: less than 0.5 µM for the first, 0.665 µM for the second.

`C[C@@H]1CCCCO[C@H](CN(C)CC2CCCCC2)[C@H](C)CN([C@@H](C)CO)C(=O)c2cc(NS(=O)(=O)c3ccc(Cl)cc3)ccc2O1` and `C[C@@H]1CCCCO[C@H](CN(C)Cc2ccc3c(c2)OCO3)[C@@H](C)CN([C@@H](C)CO)C(=O)c2cc(NS(=O)(=O)c3cccs3)ccc2O1` are within 1.5-fold of each other in AC50: 14.6 µM for the first, 13.8 µM for the second.

`N#C[C@H]1[C@@H](c2ccc(C#Cc3cccc(F)c3)cc2)[C@H](CO)N1C(=O)C1CCC1` and `CS(=O)(=O)N1[C@H](CO)[C@@H](c2ccc(C#CC3CCCCC3)cc2)[C@@H]1C#N` are within 1.5-fold of each other in AC50: 26.4 µM for the first, 17.6 µM for the second.

`CC(C)NC(=O)N(C)C[C@@H]1Oc2c(NC(=O)Nc3ccc(C(F)(F)F)cc3)cccc2C(=O)N([C@H](C)CO)C[C@@H]1C` and `C[C@H](CO)N1C[C@H](C)[C@H](CN(C)C(=O)Nc2ccccc2)Oc2c(NC(=O)Nc3ccc(C(F)(F)F)cc3)cccc2C1=O` are within 1.5-fold of each other in AC50: 23.3 µM for the first, 26.5 µM for the second.

Going from `O=C(C[C@@H]1CC[C@H]2[C@@H](COC[C@@H](O)CN2C(=O)Nc2cc(Cl)cc(Cl)c2)O1)NCC1CC1` to `O=C(C[C@H]1CC[C@@H]2[C@H](COC[C@H](O)CN2C(=O)Nc2ccc(C(F)(F)F)cc2)O1)NCC1CC1`, the AC50 falls from 16.2 µM to 3.63 µM (4.5-fold).

`O=C(C[C@@H]1CC[C@@H]2[C@H](COC[C@@H](O)CN2C(=O)Nc2ccc(Cl)c(Cl)c2)O1)NCc1ccccc1` and `O=C(C[C@@H]1CC[C@@H]2[C@H](COC[C@H](O)CN2C(=O)Nc2ccc(Cl)c(Cl)c2)O1)NCc1ccccc1` are within 1.5-fold of each other in AC50: 1.4 µM for the first, 2.01 µM for the second.

Going from `CO[C@H](CN(C)S(=O)(=O)c1cn(C)cn1)[C@H](C)CN(C(=O)Nc1ccc(C(F)(F)F)cc1)[C@H](C)CO` to `CO[C@@H](CN(C)S(=O)(=O)c1cn(C)cn1)[C@@H](C)CN(C(=O)Nc1ccc(C(F)(F)F)cc1)[C@H](C)CO`, the AC50 rises from 6.25 µM to 16.5 µM (2.6-fold).

`C[C@@H]1CN([C@H](C)CO)C(=O)c2cc(C#Cc3ccccc3F)cnc2O[C@H]1CN(C)C` and `C[C@@H]1CN([C@H](C)CO)S(=O)(=O)c2ccc(C#Cc3ccccc3)cc2O[C@H]1CN(C)C` are within 1.5-fold of each other in AC50: 23.3 µM for the first, 28.4 µM for the second.

`CO[C@H](CN(C)C(=O)C1CC1)[C@H](C)CN(C(=O)Nc1ccc(C(F)(F)F)cc1)[C@H](C)CO` and `CO[C@H](CN(C)C(=O)C1CCOCC1)[C@H](C)CN(C(=O)Nc1ccc(C(F)(F)F)cc1)[C@@H](C)CO` are within 1.5-fold of each other in AC50: 2.98 µM for the first, 4.13 µM for the second.

Going from `C[C@@H]1CN([C@@H](C)CO)C(=O)c2cc(NS(=O)(=O)c3cn(C)cn3)ccc2O[C@@H](C)CCCCO[C@@H]1CN(C)C(=O)Nc1ccc(C(F)(F)F)cc1` to `C[C@@H]1CCCCO[C@@H](CN(C)Cc2ccccc2)[C@H](C)CN([C@H](C)CO)C(=O)c2cc(NC(=O)Nc3ccc(C(F)(F)F)cc3)ccc2O1`, the AC50 rises from 5.78 µM to 21.9 µM (3.8-fold).

First: C[C@@H]1CN([C@H](C)CO)C(=O)Cc2cc(NC(=O)CCCN(C)C)ccc2O[C@H]1CN(C)Cc1ccc(-c2ccccc2)cc1
Second: C[C@H](CO)N1C[C@H](C)[C@@H](CN(C)Cc2ccc(-c3ccccc3)cc2)Oc2c(NC(=O)c3ccncc3)cccc2C1=O
The AC50 of the first is 2.9-fold higher: 19 µM for the first, 6.59 µM for the second.

`C[C@H]1CN([C@@H](C)CO)S(=O)(=O)c2ccc(C#CC3CCCCC3)cc2O[C@H]1CN(C)C` and `C[C@H](CO)N1C[C@H](C)[C@@H](CN(C)C(=O)Nc2ccc(C(F)(F)F)cc2)Oc2ccc(NC(=O)C3CC3)cc2C1=O` are within 1.5-fold of each other in AC50: 16.4 µM for the first, 15.5 µM for the second.

Compared with `C[C@@H]1CN([C@@H](C)CO)C(=O)c2cccc(NC(=O)Nc3ccc(F)cc3)c2O[C@@H]1CN(C)Cc1ccc(C(F)(F)F)cc1`, `C[C@@H]1CN([C@H](C)CO)C(=O)c2cccc(NC(=O)Nc3ccc(C(F)(F)F)cc3)c2O[C@@H]1CN(C)Cc1ccc(Oc2ccccc2)cc1` is 7.9-fold higher in AC50: 2.37 µM for the first, 18.8 µM for the second.

First: CCNC(=O)C[C@H]1CC[C@@H]2[C@H](COC[C@H](O)CN2C(=O)Nc2ccc(C(F)(F)F)cc2)O1
Second: Cn1cnc(CCNC(=O)C[C@@H]2CC[C@@H]3[C@H](COC[C@H](O)CN3C(=O)Nc3ccc(C(F)(F)F)cc3)O2)c1
The AC50 of the first is 5.7-fold lower: 3.45 µM for the first, 19.6 µM for the second.

First: O=C(C[C@@H]1CC[C@@H]2[C@H](COC[C@H](O)CN2Cc2ccc(Oc3ccccc3)cc2)O1)N1CCCCC1
Second: O=C(C[C@H]1CC[C@H]2[C@@H](COC[C@H](O)CN2C(=O)Nc2ccc(Cl)c(Cl)c2)O1)NCc1ccccc1
The AC50 of the first is 19-fold higher: 20.6 µM for the first, 1.11 µM for the second.

First: CNC(=O)C[C@@H]1CC[C@@H]2[C@H](COC[C@@H](O)CN2C(=O)Nc2ccc(Cl)c(Cl)c2)O1
Second: CCNC(=O)C[C@@H]1CC[C@@H]2[C@H](COC[C@H](O)CN2C(=O)Nc2ccc(Cl)c(Cl)c2)O1
The AC50 of the first is 1.8-fold lower: 2.31 µM for the first, 4.07 µM for the second.

Going from `O=C(C[C@H]1CC[C@@H]2[C@H](COC[C@H](O)CN2C(=O)Nc2ccc(C(F)(F)F)cc2)O1)NC1Cc2ccccc2C1` to `O=C(C[C@H]1CC[C@H]2[C@@H](COC[C@@H](O)CN2C(=O)Nc2ccc(C(F)(F)F)cc2)O1)NCC1CCCCC1`, the AC50 falls from 6.36 µM to 1.27 µM (5-fold).

`C[C@@H]1CN([C@@H](C)CO)C(=O)c2cc(NC(=O)Nc3ccc(C(F)(F)F)cc3)ccc2O[C@@H](C)CCCCO[C@H]1CN(C)Cc1ccc2c(c1)OCO2` and `C[C@@H]1CN([C@H](C)CO)C(=O)c2cccc(NC(=O)Nc3ccc(C(F)(F)F)cc3)c2O[C@@H]1CN(C)C(=O)Nc1ccccc1` are within 1.5-fold of each other in AC50: 23.9 µM for the first, 32.9 µM for the second.

`CO[C@H]1CN(C)C(=O)c2ccc(NC(=O)Nc3cc(Cl)cc(Cl)c3)cc2OC[C@@H](C)NC[C@@H]1C` and `C[C@@H](NC(=O)C[C@H]1CC[C@@H]2[C@H](COC[C@H](O)CN2C(=O)Nc2cc(Cl)cc(Cl)c2)O1)c1ccccc1` are within 1.5-fold of each other in AC50: 15.9 µM for the first, 10.9 µM for the second.

Compared with `O=C(C[C@H]1CC[C@H]2[C@@H](COC[C@@H](O)CN2C(=O)Nc2ccc(Cl)c(Cl)c2)O1)NCc1ccc(Cl)c(Cl)c1`, `CO[C@@H](CN(C)S(=O)(=O)c1cn(C)cn1)[C@H](C)CN(C(=O)Nc1ccc(C(F)(F)F)cc1)[C@@H](C)CO` is 2.3-fold higher in AC50: 1.08 µM for the first, 2.44 µM for the second.

`CO[C@@H](CN(C)Cc1cc(F)ccc1F)[C@H](C)CN(C(=O)Nc1ccc(C(F)(F)F)cc1)[C@H](C)CO` and `CO[C@@H](CN(C)Cc1cc(F)ccc1F)[C@H](C)CN(C(=O)Nc1ccc(C(F)(F)F)cc1)[C@@H](C)CO` are within 1.5-fold of each other in AC50: 5.25 µM for the first, 3.71 µM for the second.

First: C=C1CC(c2ccc(-c3ccccc3)cc2)OC1=O (stereo unspecified)
Second: CO[C@H](CN(C)Cc1cc(F)ccc1F)[C@@H](C)CN(C(=O)Nc1ccc(C(F)(F)F)cc1)[C@H](C)CO
The AC50 of the first is 2.1-fold higher: 13.7 µM for the first, 6.43 µM for the second.

With `CO[C@H](CN(C)S(=O)(=O)c1cn(C)cn1)[C@@H](C)CN(C(=O)Nc1ccc(C(F)(F)F)cc1)[C@@H](C)CO` the AC50 was 2.93 µM.

For `CS(=O)(=O)N1[C@H](C#N)[C@@H](c2ccc(C#CC3CCCC3)cc2)[C@@H]1CO`, the AC50 was > 70 µM (inactive).
With `O=C(C[C@H]1C[C@H]2c3cc(NC(=O)Nc4ccccc4)ccc3O[C@H]2[C@H](CO)O1)NC1CCCC1` the AC50 was > 60 µM (inactive).
In the case of `CO[C@@H]1CN(C)C(=O)c2cc(NC(=O)c3cc(C)on3)ccc2OC[C@H](C)N(C(C)=O)C[C@@H]1C`, the AC50 is reported as > 60 µM (inactive).
For `C[C@@H]1CN([C@H](C)CO)C(=O)c2cc(NS(=O)(=O)c3ccc(Cl)cc3)ccc2O[C@@H](C)CCCCO[C@H]1CN(C)Cc1ccc(C(F)(F)F)cc1`, the AC50 was > 60 µM (inactive).
For `N#C[C@@H]1[C@H](c2ccc(C#Cc3ccc(F)cc3)cc2)[C@@H](CO)N1C(=O)C1CCC1`, the AC50 was > 60 µM (inactive).
`COc1ccc(CN(C)C[C@@H]2OCCCC[C@H](C)Oc3ccc(NC(=O)Nc4ccc(C(F)(F)F)cc4)cc3C(=O)N([C@H](C)CO)C[C@@H]2C)cc1` was tested, and the AC50 was > 60 µM (inactive).
For `O=C(C[C@H]1CC[C@H](NC(=O)CN2CCOCC2)[C@@H](CO)O1)NCc1cccc(F)c1`, the AC50 was > 60 µM (inactive).
With `N#C[C@H]1[C@H](c2ccc(C#Cc3cccc(F)c3)cc2)[C@@H](CO)N1C(=O)C1CCC1` the AC50 was > 16 µM (inactive).
For `O=C(C[C@H]1CC[C@@H](NC(=O)CCN2CCCCC2)[C@H](CO)O1)Nc1nccs1`, the AC50 was > 60 µM (inactive).
With `CN(C)CC(=O)N[C@@H]1C=C[C@@H](CC(=O)NCCN2CCCCC2)O[C@H]1CO` the AC50 was > 60 µM (inactive).
